Measurements published in the NIST ThermoML archive (doi:10.1021/acs.jced.9b00243).
± gives the expanded uncertainty stated by the source.

Assays:
[1] = Crystal; DSC
[2] = Molar enthalpy of transition or fusion; settings: Crystal; DSC

- Triple point temperature [1]: 351.59 ± 1.2 K
- Molar enthalpy of transition or fusion [2]: 3.4 ± 0.22 kcal/mol
SMILES: N#CCc1ccccc1[N+](=O)[O-] [o-nitrophenylacetonitrile]
